System: cerebral vessels
Description: These are the symptoms upon presentation in the neurological clinic. Transcranial Doppler analysis of all cerebral vessels is performed in addition to analyzing the common carotid artery and the internal carotid artery.
The physician considers prescription of Plavix together with a calcium channel blocker. Transcranial Doppler analysis was performed at monthly intervals. […] The physician subsequently administers a higher dose. Again, transcranial Doppler analysis is performed on all cerebral vessels.
The patient is then monitored on a monthly basis after the initial prescription of Plavix in order to determine whether vascular changes are occurring which necessitate alteration in the therapy.

[1] = same patient, higher dose, transcranial Doppler on all cerebral vessels

SMILES: COC(=O)[C@H](c1ccccc1Cl)N1CCc2sccc2C1 [Plavix]
- changes in the individual cerebral vessels (person after first stroke, Plavix +/- calcium channel blocker, initial dose, transcranial Doppler at monthly intervals): no effect on the cerebral vessels
- auto-regulation curve [1]: left-shifts toward normal
- pulsatility index [1]: decreases
